Assay results published in DBAASP.
Converted amounts (≈) assume the structure as drawn. Values belong to the molecule of their own block, whether it stands above or below them.

Columns and labels:
Assay in all cases: ≥ marks a high value that may be exact or a test limit, other limits are often not marked, values filed in µg/mL are converted to µM
[1] = system: Salmonella typhimurium CCARM 8003
[2] = system: Escherichia coli CCARM 1229
[3] = system: Pseudomonas aeruginosa CCARM 2095
[4] = system: Pseudomonas aeruginosa CCARM 2002
[5] = system: Acinetobacter baumannii CCARM 12036
[6] = system: Escherichia coli KCTC 1682
[7] = system: Acinetobacter baumannii CCARM 12035
[8] = system: Staphylococcus aureus CCARM 3089
[9] = system: Escherichia coli CCARM 1238
[10] = system: Salmonella typhimurium CCARM 8007
[11] = system: Staphylococcus aureus CCARM 3108
[12] = system: Acinetobacter baumannii KCTC 2508
[13] = system: Staphylococcus epidermidis KCTC 1917
[14] = system: Bacillus subtilis KCTC 3028
[15] = system: Staphylococcus aureus CCARM 3126
[16] = system: Salmonella typhimurium KCTC 1926
[17] = system: Staphylococcus aureus KCTC 1621
[18] = system: Pseudomonas aeruginosa KCTC 1637
[19] = system: Candida albicans NCTC 3179
[20] = system: Escherichia coli ATCC 25922
[21] = system: Staphylococcus aureus NCTC 6571
[22] = system: Streptococcus mutans UA159
[23] = system: Streptococcus sanguinis ATCC 10556
[24] = system: Streptococcus sobrinus ATCC 6715
[25] = system: Escherichia coli ATCC 12014
[26] = system: Pseudomonas aeruginosa ATCC 10145
[27] = system: Bacillus subtilis ATCC 11774
[28] = system: Staphylococcus aureus ATCC 25923
[29] = system: Listeria monocytogenes ATCC 15313
[30] = system: Enterococcus faecalis FA1
[31] = system: Salmonella enterica subsp. enterica serovar Typhimurium ATCC BAA-215
[32] = system: Porphyromonas gingivalis ATCC 33277
[33] = system: Escherichia coli C25
[34] = system: Staphylococcus aureus Cowan 1
[35] = system: Leishmania major MHOM/IL/67/JERICHO-II
[36] = system: Escherichia coli HB101

MIC [1]: 16 µM (≈ 43.6 µg/mL)
MIC [2]: 8 µM (≈ 21.8 µg/mL)
MIC [3]: 16 µM (≈ 43.6 µg/mL)
MIC [4]: 16 µM (≈ 43.6 µg/mL)
MIC [5]: 8 µM (≈ 21.8 µg/mL)
MIC [6]: 8 µM (≈ 21.8 µg/mL)
MIC [7]: 8 µM (≈ 21.8 µg/mL)
MIC [8]: ≥ 32 µM
MIC [9]: 8 µM (≈ 21.8 µg/mL)
MIC [10]: 8 µM (≈ 21.8 µg/mL)
MIC [11]: ≥ 32 µM
MIC [12]: 8 µM (≈ 21.8 µg/mL)
MIC [13]: ≥ 32 µM
MIC [14]: ≥ 32 µM
MIC [15]: ≥ 32 µM
MIC [16]: 8 µM (≈ 21.8 µg/mL)
MIC [17]: ≥ 32 µM
MIC [18]: 16 µM (≈ 43.6 µg/mL)
Structure (SMILES): CC[C@H](C)[C@H](NC(=O)[C@H](C)NC(=O)[C@H](CCC(=O)O)NC(=O)[C@H](Cc1cnc[nH]1)NC(=O)[C@@H](NC(=O)[C@@H]1CCCN1C(=O)[C@H](CCC(N)=O)NC(=O)[C@H](Cc1ccccc1)NC(=O)[C@@H](NC(=O)[C@H](CCCCN)NC(=O)[C@H](CCCCN)NC(=O)[C@H](CC(C)C)NC(=O)[C@H](C)NC(=O)[C@H](CC(N)=O)NC(=O)[C@H](CC(C)C)NC(=O)CN)C(C)C)[C@@H](C)CC)C(=O)N[C@@H](CCCCN)C(=O)N[C@@H](CC(C)C)C(=O)N[C@H](C(=O)N[C@@H](CC(N)=O)C(=O)N[C@@H](CC(N)=O)C(=O)N[C@@H](Cc1cnc[nH]1)C(=O)N[C@H](C(=O)N[C@@H](CCC(N)=O)C(=O)O)C(C)C)[C@@H](C)CC [GLNALKKVFQPIHEAIKLINNHVQ]

MIC [19]: ≥ 36.5 µM
MIC [20]: 0.912 µM (≈ 2.1 µg/mL)
MIC [21]: 3.13 µM (≈ 7.2 µg/mL)
Structure (SMILES): CC[C@H](C)[C@H](NC(=O)[C@H](CCCN=C(N)N)NC(=O)[C@H](CCC(N)=O)NC(=O)[C@@H](NC(=O)[C@@H](NC(=O)[C@H](CCCN=C(N)N)NC(=O)[C@H](CCCCN)NC(=O)[C@H](Cc1ccccc1)NC(=O)[C@H](CCC(=O)O)NC(=O)[C@@H](N)CCCCN)[C@@H](C)CC)C(C)C)C(=O)N[C@@H](CCCCN)C(=O)N[C@@H](CC(=O)O)C(=O)N[C@@H](Cc1ccccc1)C(=O)N[C@@H](CC(C)C)C(=O)N[C@@H](CCCN=C(N)N)C(=O)N[C@@H](CC(N)=O)C(=O)N[C@@H](CC(C)C)C(=O)N[C@H](C(=O)O)C(C)C [KEFKRIVQRIKDFLRNLV]

MIC [22]: 18.8 µM (≈ 32 µg/mL)
MIC [23]: 18.8 µM (≈ 32 µg/mL)
MIC [24]: 18.8 µM (≈ 32 µg/mL)
Structure (SMILES): CC(C)[C@H](NC(=O)[C@H](CCCCN)NC(=O)[C@H](Cc1ccccc1)NC(=O)[C@H](Cc1ccccc1)NC(=O)[C@H](CCCCN)NC(=O)[C@H](CCCCN)NC(=O)[C@H](Cc1ccccc1)NC(=O)[C@H](Cc1ccccc1)NC(=O)[C@H](CCCCN)NC(=O)CNC(=O)[C@H](Cc1c[nH]c2ccccc12)NC(=O)CN)C(=O)NCC(=O)N[C@@H](CCCCN)C(=O)O [GWGKFFKKFFKVGK]

MIC [25]: 3.37 µM (≈ 6.25 µg/mL)
MIC [26]: 6.73 µM (≈ 12.5 µg/mL)
MIC [27]: ≥ 108 µM
MIC [28]: 14 µM (≈ 26 µg/mL)
MIC [29]: 6.73 µM (≈ 12.5 µg/mL)
MIC [30]: ≥ 53.9 µM
MIC [31]: 6.73 µM (≈ 12.5 µg/mL)
MIC [32]: 1.68 µM (≈ 3.12 µg/mL)
MIC [33]: 7.1 µM (≈ 13.2 µg/mL)
Structure (SMILES): CC[C@H](C)[C@H](NC(=O)CNC(=O)[C@H](CCCN=C(N)N)NC(=O)[C@H](Cc1ccc(O)cc1)NC(=O)[C@@H](NC(=O)[C@H](CCCN=C(N)N)NC(=O)[C@H](Cc1ccccc1)NC(=O)[C@H](Cc1c[nH]c2ccccc12)NC(=O)[C@@H](N)CCCCN)C(C)C)C(=O)N[C@@H](Cc1ccc(O)cc1)C(=O)N[C@@H](CCCN=C(N)N)C(=O)N[C@@H](CCCN=C(N)N)C(=O)N[C@@H](CCCN=C(N)N)C(N)=O [KWFRVYRGIYRRR]

MIC [34]: ≥ 48.8 µM
MIC [35]: ≥ 48.8 µM
MIC [36]: ≥ 48.8 µM
Structure (SMILES): CSCC[C@H](NC(=O)[C@@H](NC(=O)CNC(=O)[C@H](CC(C)C)NC(=O)[C@H](CCCCN)NC(=O)[C@H](CCCCN)NC(=O)[C@H](CC(C)C)NC(=O)[C@H](CCSC)NC(=O)[C@@H](NC(=O)[C@H](CCCCN)NC(=O)[C@H](Cc1c[nH]c2ccccc12)NC(=O)[C@H](CC(C)C)NC(=O)[C@H](C)N)[C@@H](C)O)[C@@H](C)O)C(=O)N[C@@H](C)C(N)=O [ALWKTMLKKLGTMA]
